Test results reported in patent publication US5783568A, “Methods for treating cancer and other cell proliferative diseases” (Sugen, Inc., priority 1994, dated 1998).
“Also recorded” adds a separate entry of the source.

Assays:
[1] = test system: sFGFR (soluble extracellular domain of FGFR2); assay: Covalent cross-linking (DSS) of sFGFR, dimerization; type: biochemical, human
Protocol: Purified sFGFR was incubated with aFGF in the presence (lanes 2, 4, 6 and 8) or absence (lanes 1, 3, 5 and 7) of heparin for 1 hour at room temperature. The covalent cross-linker, DSS, was then added and incubation was continued for a further 45 minutes. Samples were then boiled in Laemmli sample buffer, separated by SDS-PAGE (6-12% gradient gel), and transferred to a nitro-cellulose membrane. The protein bands were visualized by blotting with anti-FGFR2 (lanes 1-4) or anti-aFGF antibodies (lanes 5-8), followed by ^125 I-protein A. I-sFGFR monomers; II-aFGF/sFGFR complex (monomeric); III-aFGF/sFGFR complex (dimeric).
A plasmid encoding the extracellular, ligand-binding domain of human FGFR2 (residues 1-355) was constructed using standard oligonucleotide-directed mutagenesis (Amersham) to introduce a translational termination codon immediately prior to the beginning of the single transmembrane domain of the receptor (Dionne et al., 1990). BamHI and SacII restriction sites were introduced 3' to the new termination codon. An XbaI-SacII fragment was isolated from the replicative form (RF) of this M13 mutagenesis product, filled in using T4 DNA polymerase (Boehringer-Mannheim) and inserted into the SmaI site of the expression vector pCVN (Dionne et al., 1990). This expression vector, which contains both the neomycin resistance and the dihydrofolate reductase genes for selection and amplification, was transfected into CHO cells following published procedures. Wigler et al., 1979, Cell 16:777-785.
Purified sFGFR (0.2 μM) was incubated with aFGF (0.6 μM) in the presence or absence of heparin. […] Cross-linking studies of aFGF alone were performed using the same procedure, except that samples were analyzed by 15% SDS-PAGE and detected by staining with Coomassie Brilliant Blue.
If aFGF activates its receptor in a similar manner, aFGF binding to sFGFR would therefore be expected to promote its dimerization. […] Samples were then analyzed by SDS-PAGE, followed by immunoblotting with either anti-FGFR2 or anti-aFGF antibodies. […]

sFGFR = assay: aFGF/sFGFR/heparin complex formation by non-denaturing PAGE; type: binding, human; settings: aFGF alone or heparin alone
Protocol: aFGF, heparin or a mixture of aFGF and heparin were added to sFGFR. Free aFGF and sFGFR were separated from the complexes by gel-filtration, and fractions containing the complexes were analyzed by non-denaturing PAGE. Proteins were visualized by staining with Coomasie Brilliant blue. Various oligomerization states of aFGF/sFGFR are detected only in the presence of heparin.
aFGF alone, or a pre-incubated mixture of heparin and aFGF (molar ratio 1:10) was added to a solution containing sFGFR. The mixtures were then incubated for 20 min at room temperature in 20 mM Hepes pH 7.5, 200 mM NaCl. Size-exclusion chromatography, using a Superose 12 column (Pharmacia), was then employed to separate free aFGF and sFGFR from the complex that formed. Fractions containing the isolated complexes were pooled, and analyzed by non-denaturing PAGE (4-15% gradient gels), using the Phastsystem (Pharmacia). Gels were stained with Coomassie Blue. In the case of the sFGFR/heparin mixture (FIG. 4, lane 2), heparin was simply added to the sFGFR solution prior to electrophoresis.
The requirement of both heparin and aFGF for the induction of sFGFR dimerization was also confirmed in a second experimental system. sFGFR was incubated with aFGF alone, or with aFGF plus heparin.

| Substance | sFGFR dimerization, aFGF alone ([1]; no heparin) | mobility of sFGFR in non-denaturing PAGE (sFGFR) | sFGFR dimerization, heparin plus aFGF ([1]; both heparin and aFGF) | effect on mobility of sFGFR, heparin alone ([1]; no aFGF) |
| --- | --- | --- | --- | --- |
| aFGF: aFGF was expressed in E. coli and purified by binding to a heparin-sepharose column | No cross-linked dimeric form of sFGFR could be detected; also recorded: they were not detected in the presence of aFGF alone; also recorded: did not, however, result in the formation of dimers of the receptor extracellular domain | reduced slightly | – | – |
| heparin | – | no significant effect upon the migration of sFGFR | cross-linked dimers of sFGFR are formed under these conditions; also recorded: the binding of aFGF to sFGFR did lead to its dimerization | did not affect the mobility of sFGFR |
